For the test, the target named is nuclear receptor 4A1 (NR4A1) (Homo sapiens, UniProt P22736). Description: tryptophan fluorescence quenching with the isolated LBD ([…]). The test is classed as binding.

Consider one compound from publication PMC11943482, “A Chalcone Synthase-like Bacterial Protein Catalyzes Heterocyclic C-Ring Cleavage of Naringenin to Alter Bioactivity Against Nuclear Receptors in Colonic Epithelial Cells” (Metabolites, 2025).

As a reminder, the Kd is the concentration at which binding is half-saturated. A low value points to a tighter complex.

Sequence of nuclear receptor 4A1 (NR4A1) (P22736 360-598 limits assumed): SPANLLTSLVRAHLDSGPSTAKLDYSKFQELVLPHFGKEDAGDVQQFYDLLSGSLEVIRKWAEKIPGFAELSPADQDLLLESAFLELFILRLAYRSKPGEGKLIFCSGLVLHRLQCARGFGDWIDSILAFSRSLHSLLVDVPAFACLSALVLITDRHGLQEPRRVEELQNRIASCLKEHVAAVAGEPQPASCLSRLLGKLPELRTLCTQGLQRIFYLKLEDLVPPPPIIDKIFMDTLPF

Compound `O=C1C[C@@H](c2ccc(O)cc2)Oc2cc(O)cc(O)c21` [naringenin] had a Kd of 4.5 µM.
